Source: patent publication EP0193414A2, “Liposomes, process for their preparation and compositions containing them” (Fluck, David John, priority 1985, dated 1986)

How the values were obtained:
trypanosomiasis = conditions: free drug, cited from earlier work; for period of protection (prophylaxis): Samorin at 0.5-1.0 mg/kg, dependent on dosage and tsetse fly challenge
[1] = depot formation at the injection site after intramuscular injection in goats; format: in vivo, goat
Method: An injection site depot from another goat to which free Samorin in aqueous solution was administered by the same route and at the same dosage as that from this Example was noted to be more diffuse.
Liposomal Berenil was recovered from each depot.

[2] = cited from earlier work; for side effects: free drug, 1 mg/kg for homidium and 0.5-1.0 mg/kg for Samorin
[3] = free drug in aqueous solution; cited from earlier work

SMILES | period of protection (prophylaxis) (trypanosomiasis) | side effects [2] | other results
CC[n+]1c(-c2ccccc2)c2cc(NN=Nc3cccc(C(=N)N)c3)ccc2c2ccc(N)cc21.Cl.[Cl-] [Samorin, 8-[(m-amidinophenylazo)amino]-3-amino-5-ethyl-6-phenylphenanthridinium chloride hydrochloride] | 60 to 120 days | reaction by the injected tissue to the drug | dosage with therapeutic trypanocidal action (trypanosomiasis): 0.25 mg/kg; depot at the injection site ([1]; goat culled 15 days after intramuscular administration, 1 mg/kg live weight Samorin): more diffuse
CC[n+]1c(-c2ccccc2)c2cc(N/N=N/c3cccc(C(=N)N)c3)ccc2c2ccc(N)cc21.[Cl-] [isometamidium chloride] |  |  | stability in aqueous solution [3]: rapid lability
N=C(N)c1ccc(N=NNc2ccc(C(=N)N)cc2)cc1 [Berenil, diminazene aceturate] | a few days only |  | depot at the injection site ([1]; goat, intramuscular, 3.5 mg/kg live weight (calculated as active ingredient)): no indication of a depot
CC[n+]1c(-c2ccccc2)c2cc(N)ccc2c2ccc(N)cc21 [homidium, 2,7-diamino-9-phenyl-10-ethylphenanthridinium] |  | infrequent | drug depots after administration of free drug ([2]; intramuscular, free drug in aqueous solution): diffuse staining of muscle tissue
CC[n+]1c(-c2ccccc2)c2cc(N)ccc2c2ccc(N)cc21 [Homidium chloride, 2,7-diamino-9-phenyl-10-ethylphenanthridinium] | ≤ 60 days |  | 
